# Key:
# SUM-159PT cells = experiment: Mammosphere formation after paclitaxel pre-treatment; type: cell-based; details: 8 nM Paclitaxel or 8 nM Paclitaxel plus 5 μM B591 for 24 h
# Experimental: Fig. 6 B591 reduces breast tumor metastasis and recurrence. a Representative images show the effect of B591 (8 mg/kg) on lung metastasis of 4T1 cells, and data from six mice were plotted. b SUM-159PT cells were respectively treated with the indicated agents (8 nM Paclitaxel, 8 nM Paclitaxel plus 5 μM B591) for 24 h, the cells were then cultured for mammospheres. Representative images were shown, and data from two independent experiments were plotted. c–f SUM-159PT xenografts (n = 7) were treated with 4 mg/kg Paclitaxel, or 10 mg/kg B591, or both for 2 weeks, then ended the treatment and waited for tumor recurrence. Tumor volume (c) and body weight (d) were measured every 2 days after treatment, and tumors were photographed (e) and weighted (f) at the end of the experiment. ^*p < 0.05, ^**p < 0.01 versus indicated groups
# Based on the finding that B591 preferentially targets CSCs, we supposed that by eliminating the breast CSCs, B591 might delay breast tumor recurrence after initial treatment with chemotherapy drugs. Paclitaxel is a first-line chemotherapeutic agent used for breast cancer therapy. SUM-159PT cells were pre-treated with paclitaxel, and then the cells remaining alive were cultured for mammospheres.
# [1] = test system: MDA-MB-231 orthotopic xenografts; experiment: MDA-MB-231 orthotopic xenograft; type: in vivo, NOD/SCID mice; details: for Decrease of tumor burden (determined by volume): versus vehicle
# Experimental: Then we evaluated the inhibitory effect of B591 on CSCs by in vivo xenograft assay (Fig. 5a). B591 (4 or 16 mg/kg) was given to the NOD/SCID mice bearing orthotopic xenografts of human breast cancer MDA-MB-231 cells for 2 weeks. […] The inhibition of PI3K/mTOR pathway by B591 in tumors was further confirmed by western blot analysis.
# In MDA-MB-231 xenografts experiment, 1 × 10^6 cells were incubated into the mammary fat pad of mice orthotopically. When the volume of tumor reached above 50 mm^3, the mice were randomly divided into three groups for introperitoneal (i.p.) injection with vehicle, 4 mg/kg and 16 mg/kg B591. The tumor volume and the body weight of mice were measured during the 2-weeks treatment. In the end of treatment, the mice were killed, and the tumor tissues were dissected and dissociated into single cell suspension with Dispase II (Roche, Basel, Switzerland) according with the manufacture’s protocol. Then these single cells were used for CSCs phenotype assay, ALDH activity assay, mammosphere formation assay and limiting dilution assay in vivo as described above.
# [2] = test system: MDA-MB-231 and SUM-159PT mammospheres; experiment: Secondary mammosphere-formation assay; type: cell-based, human; details: primary mammospheres treated 48 h, then passaged
# Experimental: Cells were treated with indicated agents for 48 h, and cells were harvested and processed for apoptosis assay using the PE-Annexin V/7-AAD Apoptosis Detection Kit. d Representative flow cytometry plots of apoptosis inducing activity of B591 (10 μM) and paclitaxel (10 nM) on monolayer and mammosphere MDA-MB-231 cells. e B591 preferentially targeted CD44^high/CD24^low cells. Cells were treated with B591 or paclitaxel for 2 days. Following a 4-day recovery period, cells were co-stained with CD44 and CD24 antibodies and subjected to FACS analysis. Representative flow cytometry plots show the effect of B591 on CD44^high/CD24^low population in MDA-MB-231 cells in vitro. f B591 decreased mammosphere forming efficiency. Primary MDA-MB-231 mammospheres were treated with B591 or paclitaxel for 48 h. Results of the secondary mammosphere-formation assay are shown. Scale bar represents 40 μm. g B591 decreased the expression of CSC markers in MDA-MB-231 cells. Cells were treated with B591 or paclitaxel for 2 days. […]
# In the mammosphere assay, MDA-MB-231 (Fig. 3f) and SUM-159PT (Supplementary Fig. S10D) cells were treated with B591 or paclitaxel, and the mammospheres were collected and subsequently passaged. Secondary Mammosphere-forming activity was determined, which reflects the self-renewal capability of CSCs. […]
# [3] = test system: eIF4E [nuc:cyto] ratio in SMMC7721, HepG2, MCF7, MDA-MB-231 and A549 cells; experiment: Immunofluorescence and high content assay of eIF4E localization; type: cell-based; details: 5 h, five human cancer cell lines
# Source text: The mRNA 5′ cap-binding protein eukaryotic initiation factor 4E (eIF4E) is a key regulator of cap-dependent translation initiation in the cytoplasm. Elevated level of eIF4E has been implicated in oncogenic transformation and tumorigenesis. The availability of eIF4E is tightly controlled through regulated interaction with 4E-BPs. eIF4E is predominantly cytoplasmic in mammalian cells, whereas serum-starvation and/or rapamycin-treatment: conditions that suppress mTOR signaling induces an accumulation of eIF4E within the nucleus. By using immunofluorescence assay, we assessed the effect of B591 on eIF4E subcellular localization of eIF4E. […] Further, five human cancer cell lines (SMMC7721, HepG2, MCF7, MDA-MB-231, and A549) were respectively treated with different concentrations of B591 for 5 h and eIF4E [nuc:cyto] ratios were determined by a high content assay using Thermo Scientific Cellomics ArrayScan VTI HCS.
# Cells were seeded in 96-well plates (5,000 cells/well) and treated with DMSO or B591 for 5 h. Cells were then fixed with 4 % paraformaldehyde and followed by permeabilization with 0.1% triton X-100 and blocking in 2% bovine serum albumin in PBS. […] The subcellular location of eIF4E and the eIF4E nuclear–cytoplasmic intensity of each field per well was monitored and analyzed by using ArrayScan® VTI HCS Reader according to manufacturer’s instruction.
smiles,measurement,setting,value
"Cc1cc2c(cc1C)[n+](Cc1ccccc1Br)cn2Cc1ccc2c(c1)CCO2.[Br-] [B591, 3-(2-bromobenzyl)-1-((2,3-dihydrobenzofuran-5-yl)methyl) -5,6-dimethyl-1H-benzo[d]imidazol-3-ium bromide]",Formation of mammospheres / paclitaxel-enriched CSCs,SUM-159PT cells,the paclitaxel-enriched CSCs were effectively eliminated
same,Decrease of tumor burden (determined by volume),"[1]; 4 mg/kg i.p., 2 weeks",40%
same,Inhibition based on final tumor weights,"[1]; 16 mg/kg i.p., 2 weeks",70.7%
same,Decrease of tumor burden (determined by volume),"[1]; 16 mg/kg i.p., 2 weeks",60%
same,Body weight,"[1]; 4 or 16 mg/kg, 2 weeks",no significant body weight loss
same,CD44high/CD24low and ALDHhigh breast CSCs populations in xenograft tumors,[1]; tumors dissociated at end of treatment,significantly reduced
same,Secondary mammosphere-forming ability,[2],strikingly suppressed
same,eIF4E [nuc:cyto] ratio,[3],increased eIF4E [nuc:cyto] ratios in all the five cancer cells in a dose-dependent manner

# — paper PMC6756013, “B591, a novel specific pan-PI3K inhibitor, preferentially targets cancer stem cells” (Oncogene, 2019)
